From ChEMBL document CHEMBL3885861, “Open TG-GATES”

Species: Rattus norvegicus
Assay: Open TG-GATES - Regimen: Single
Format: toxicity, organism-based, Sprague-Dawley
Parameters: regimen Single, gender Male, age 6 weeks
Details: in vivo, po, 0 mg/kg, route gavage, dose level Control; for APTT / Bas / Eos / Fbg / Hb / Ht / Lym / MCH / MCHC / MCV / Mono / Neu / PT / Plat / RBC / Ret / WBC: tissue Blood; for KIDNEY_L / KIDNEY_R / KIDNEY_TOTAL: tissue Kidney; for LIVER: tissue Liver; for A/G / ALP / ALT / AST / BUN / CRE / Ca / Cl / DBIL / GLC / IP / K / LDH / Na / PL / RALB / TBIL / TC / TG / TP / gamma-GTP: tissue Plasma

## CN(C)CCN(Cc1cccs1)c1ccccn1
3 h
  TERMINAL_BW: 183.4 g
  APTT: 20.4 s
  Bas: 0%
  Eos: 0.4%
  Fbg: 308 mg/dL
  Hb: 13.1 g/dL
  Ht: 40.4%
  Lym: 76.8%
  MCH: 20.9 pg
  MCHC: 32.5%
  MCV: 64.2 fL
  Mono: 2.4%
  Neu: 20%
  PT: 16.5 s
  Plat: 124.4 x10_4/uL
  RBC: 629.4 x10_4/ul
  Ret: 7.8%
  WBC: 76.5 x10_2/uL
  KIDNEY_L: 0.8 g
  KIDNEY_R: 0.9 g
  KIDNEY_TOTAL: 1.7 g
  LIVER: 8.4 g
  A/G: 1.2
  ALP: 1580.4 IU/L
  ALT: 41.4 IU/L
  AST: 72.8 IU/L
  BUN: 14.4 mg/dL
  CRE: 0.2 mg/dL
  Ca: 10.3 mg/dL
  Cl: 107.4 meq/L
  DBIL: 0 mg/dL
  GLC: 181.8 mg/dL
  IP: 7.7 mg/dL
  K: 4.2 meq/L
  LDH: 227 IU/L
  Na: 142.8 meq/L
  PL: 127.6 mg/dL
  RALB: 2.9 g/dL
  TBIL: 0.008 mg/dL
  TC: 70.4 mg/dL
  TG: 42.6 mg/dL
  TP: 5.3 g/dL
  gamma-GTP: 1 IU/L
6 h
  TERMINAL_BW: 186.2 g
  APTT: 20.7 s
  Bas: 0%
  Eos: 0.4%
  Fbg: 303 mg/dL
  Hb: 12.6 g/dL
  Ht: 38.6%
  Lym: 84.6%
  MCH: 21 pg
  MCHC: 32.7%
  MCV: 64.1 fL
  Mono: 1.6%
  Neu: 12.4%
  PT: 17.2 s
  Plat: 119.7 x10_4/uL
  RBC: 603 x10_4/ul
  Ret: 7.8%
  WBC: 97.9 x10_2/uL
  KIDNEY_L: 0.9 g
  KIDNEY_R: 0.9 g
  KIDNEY_TOTAL: 1.7 g
  LIVER: 8.3 g
  A/G: 1.2
  ALP: 1742 IU/L
  ALT: 37.4 IU/L
  AST: 68.4 IU/L
  BUN: 10.8 mg/dL
  CRE: 0.2 mg/dL
  Ca: 10 mg/dL
  Cl: 106.2 meq/L
  DBIL: 0 mg/dL
  GLC: 174.2 mg/dL
  IP: 9 mg/dL
  K: 4.1 meq/L
  LDH: 171.6 IU/L
  Na: 141.8 meq/L
  PL: 127.2 mg/dL
  RALB: 2.9 g/dL
  TBIL: 0.016 mg/dL
  TC: 74.8 mg/dL
  TG: 44.6 mg/dL
  TP: 5.3 g/dL
  gamma-GTP: 1 IU/L
9 h
  TERMINAL_BW: 180.7 g
  APTT: 20.7 s
  Bas: 0%
  Eos: 0.8%
  Fbg: 296.8 mg/dL
  Hb: 13 g/dL
  Ht: 39.3%
  Lym: 82.2%
  MCH: 21.1 pg
  MCHC: 33.1%
  MCV: 63.9 fL
  Mono: 1.6%
  Neu: 14.8%
  PT: 15.6 s
  Plat: 121.1 x10_4/uL
  RBC: 615.8 x10_4/ul
  Ret: 7.7%
  WBC: 69.3 x10_2/uL
  KIDNEY_L: 0.8 g
  KIDNEY_R: 0.8 g
  KIDNEY_TOTAL: 1.6 g
  LIVER: 7.3 g
  A/G: 1.2
  ALP: 1371.8 IU/L
  ALT: 33.8 IU/L
  AST: 66.4 IU/L
  BUN: 11.2 mg/dL
  CRE: 0.2 mg/dL
  Ca: 10.1 mg/dL
  Cl: 106.8 meq/L
  DBIL: 0 mg/dL
  GLC: 177.8 mg/dL
  IP: 9.6 mg/dL
  K: 4.2 meq/L
  LDH: 171.2 IU/L
  Na: 142.4 meq/L
  PL: 133.2 mg/dL
  RALB: 2.9 g/dL
  TBIL: 0.018 mg/dL
  TC: 73.4 mg/dL
  TG: 59.4 mg/dL
  TP: 5.3 g/dL
  gamma-GTP: 1 IU/L
24 h
  TERMINAL_BW: 200.8 g
  APTT: 20.1 s
  Bas: 0%
  Eos: 0.8%
  Fbg: 280.8 mg/dL
  Hb: 12.9 g/dL
  Ht: 39.1%
  Lym: 79.2%
  MCH: 21.2 pg
  MCHC: 33%
  MCV: 64.3 fL
  Mono: 2.4%
  Neu: 17%
  PT: 16.5 s
  Plat: 120.3 x10_4/uL
  RBC: 608.2 x10_4/ul
  Ret: 8%
  WBC: 89.7 x10_2/uL
  KIDNEY_L: 0.9 g
  KIDNEY_R: 0.9 g
  KIDNEY_TOTAL: 1.8 g
  LIVER: 9.4 g
  A/G: 1.2
  ALP: 1802.6 IU/L
  ALT: 41.6 IU/L
  AST: 71.8 IU/L
  BUN: 16.8 mg/dL
  CRE: 0.2 mg/dL
  Ca: 11 mg/dL
  Cl: 105.6 meq/L
  DBIL: 0.002 mg/dL
  GLC: 188 mg/dL
  IP: 7.4 mg/dL
  K: 4.4 meq/L
  LDH: 206.4 IU/L
  Na: 142.4 meq/L
  PL: 149.8 mg/dL
  RALB: 3 g/dL
  TBIL: 0.018 mg/dL
  TC: 77.8 mg/dL
  TG: 92.6 mg/dL
  TP: 5.4 g/dL
  gamma-GTP: 1 IU/L
